This note sets out measurements from patent US4591559A, “Antibiotic X-14934A and a method for its preparation” (Hoffmann-La Roche Inc., priority 1985, dated 1986).

The test concerns E. Tenella. The test can be described thus: Anti-coccidial activity against E. Tenella in chickens. Format: in vivo. The note with it: 75 PPM in feed. On the procedure:
This test utilizes ten chickens per drug group. Ten chickens are employed as a weight control and ten chickens as an infected control. The drug is given 48 hours in advance of the infection. One gm. of the test drug is mixed in a mechanical mixer with a sufficient amount of chicken feed to result in the desired dosage. The infection consists of approximately 200,000 oocysts given orally by pipette. The tests lasts for eleven days and the surviving bids are autopsied and examined for gross lesions in the ceca. The test bids are rated according to the number of survivors and the number of cecal lesions. The results are expressed as average degree of infection (A.D.I.). An average degree of infection of less than 2.5 is considered to be significant.

As for `CC[C@@H](C(=O)[C@@H](C)[C@@H](O)[C@H](C)CCc1ccc(C)c(O)c1C(=O)O)[C@H]1O[C@](CC)([C@H]2CC[C@](O)(CC)[C@H](C)O2)C[C@@H]1C` [Lasalocid], the Mort. % is 0% and the “Weight Gain %” value came out at 98%. In addition, the “Ave. Degree Infect.” value (<2.5 considered significant) is listed as 0.0.
